Reference: ChEMBL document CHEMBL1143762, “CP5484, a novel quaternary carbapenem with potent anti-MRSA activity and reduced toxicity” (Bioorg Med Chem, 2007)
≈ marks a conversion by molar mass, not a printed value.

How the values were obtained:
Staphylococcus aureus [1] = assay: Antibacterial activity against Staphylococcus aureus 209P JC1; format: functional
Staphylococcus aureus [2] = assay: Antibacterial activity against methicillin-resistant Staphylococcus aureus M126; format: functional
Staphylococcus aureus [3] = assay: Antibacterial activity against carbapenem-resistant Staphylococcus aureus M126 HR; format: functional
Mus musculus = assay: Acute toxicity in iv dosed ICR mouse assessed as mortality after 24 hrs; format: organism-based; details: in vivo
Staphylococcus aureus [4] = assay: Antibacterial activity against penicillin-resistant Staphylococcus aureus PRC9; format: functional
Escherichia coli = assay: Antibacterial activity against Escherichia coli NIHJ JC2; format: functional
Klebsiella pneumoniae = assay: Antibacterial activity against Klebsiella pneumoniae PCI602; format: functional
Moraxella catarrhalis = assay: Antibacterial activity against Moraxella catarrhalis W-0500; format: functional
Haemophilus influenzae = assay: Antibacterial activity against beta lactamase positive amoxicillin/clavulanic acid-resistant Haemophilus influenzae PRC44; format: functional
Pseudomonas aeruginosa = assay: Antibacterial activity against Pseudomonas aeruginosa PAO1; format: functional

| SMILES | MIC (Staphylococcus aureus [1]) | MIC (Staphylococcus aureus [2]) | MIC (Staphylococcus aureus [3]) | MLD (Mus musculus) | MIC (Staphylococcus aureus [4]) | MIC (Escherichia coli) | MIC (Klebsiella pneumoniae) | MIC (Moraxella catarrhalis) | MIC (Haemophilus influenzae) | MIC (Pseudomonas aeruginosa) |
| --- | --- | --- | --- | --- | --- | --- | --- | --- | --- | --- |
| CSc1c2sc(C3=C(C(=O)[O-])N4C(=O)[C@H]([C@@H](C)O)[C@H]4[C@H]3C)cn2c[n+]1CC(N)=O | < 0.006 µg/mL | 1.56 µg/mL (≈ 3.57 µM) | 3.13 µg/mL (≈ 7.17 µM) | – | – | – | – | – | – | – |
| CSc1c2sc(C3=C(C(=O)[O-])N4C(=O)[C@H]([C@@H](C)O)[C@H]4[C@H]3C)cn2c[n+]1C[C@H](C)CN | < 0.006 µg/mL | 0.78 µg/mL (≈ 1.73 µM) | 1.56 µg/mL (≈ 3.46 µM) | 500 mg/kg | – | – | – | – | – | – |
| CSc1c2sc(C3=C(C(=O)[O-])N4C(=O)[C@H]([C@@H](C)O)[C@H]4[C@H]3C)cn2c[n+]1[C@@H]1CN[C@H](CO)C1 | < 0.006 µg/mL | 0.78 µg/mL (≈ 1.63 µM) | 3.13 µg/mL (≈ 6.54 µM) | – | – | – | – | – | – | – |
| C[C@@H](O)[C@H]1C(=O)N2C(C(=O)O)=C(SCCNC=N)C[C@H]12 [IMIPENEM ANHYDROUS] | 0.013 µg/mL (≈ 0.0434 µM) | 25 µg/mL (≈ 83.5 µM) | 100 µg/mL (≈ 334 µM) | – | 0.39 µg/mL (≈ 1.3 µM) | 0.1 µg/mL (≈ 0.334 µM) | 0.39 µg/mL (≈ 1.3 µM) | 0.05 µg/mL (≈ 0.167 µM) | 3.13 µg/mL | 1.56 µg/mL (≈ 5.21 µM) |
| CSc1c2sc(C3=C(C(=O)[O-])N4C(=O)[C@H]([C@@H](C)O)[C@H]4[C@H]3C)cn2c[n+]1Cc1cccc(CSC(=N)N)c1 | < 0.006 µg/mL | 0.39 µg/mL (≈ 0.699 µM) | 0.78 µg/mL (≈ 1.4 µM) | 250 mg/kg | – | – | – | – | – | – |
| CSc1c2sc(C3=C(C(=O)[O-])N4C(=O)[C@H]([C@@H](C)O)[C@H]4[C@H]3C)cn2c[n+]1CCCCCCN | < 0.006 µg/mL | 0.78 µg/mL (≈ 1.63 µM) | 1.56 µg/mL (≈ 3.26 µM) | 250 mg/kg | – | – | – | – | – | – |
| CSc1c2sc(C3=C(C(=O)[O-])N4C(=O)[C@H]([C@@H](C)O)[C@H]4[C@H]3C)cn2c[n+]1[C@@H]1CN[C@H](C(=O)O)C1 | 0.025 µg/mL (≈ 0.0508 µM) | 3.13 µg/mL (≈ 6.35 µM) | 6.25 µg/mL (≈ 12.7 µM) | – | – | – | – | – | – | – |
| CSc1c2sc(C3=C(C(=O)[O-])N4C(=O)[C@H]([C@@H](C)O)[C@H]4[C@H]3C)cn2c[n+]1CCCNC=N | < 0.006 µg/mL | 0.78 µg/mL (≈ 1.68 µM) | 3.13 µg/mL (≈ 6.75 µM) | – | – | – | – | – | – | – |
| CSc1c2sc(C3=C(C(=O)[O-])N4C(=O)[C@H]([C@@H](C)O)[C@H]4[C@H]3C)cn2c[n+]1CCCNC(C)=N | < 0.006 µg/mL | 0.78 µg/mL (≈ 1.63 µM) | 3.13 µg/mL (≈ 6.55 µM) | – | – | – | – | – | – | – |
| CSc1c2sc(C3=C(C(=O)[O-])N4C(=O)[C@H]([C@@H](C)O)[C@H]4[C@H]3C)cn2c[n+]1[C@H]1CCN(C(C)=N)C1 | < 0.006 µg/mL | 1.56 µg/mL (≈ 3.19 µM) | 3.13 µg/mL (≈ 6.39 µM) | – | – | – | – | – | – | – |
| CSc1c2sc(C3=C(C(=O)[O-])N4C(=O)[C@H]([C@@H](C)O)[C@H]4[C@H]3C)cn2c[n+]1CCN | < 0.006 µg/mL | 0.78 µg/mL (≈ 1.85 µM) | 3.13 µg/mL (≈ 7.41 µM) | 500 mg/kg | – | – | – | – | – | – |
| CSc1c2sc(C3=C(C(=O)[O-])N4C(=O)[C@H]([C@@H](C)O)[C@H]4[C@H]3C)cn2c[n+]1CCCCN | < 0.006 µg/mL | 0.78 µg/mL (≈ 1.73 µM) | 1.56 µg/mL (≈ 3.46 µM) | – | – | – | – | – | – | – |
| COC(=O)[C@@H]1C[C@H]([n+]2cn3cc(C4=C(C(=O)[O-])N5C(=O)[C@H]([C@@H](C)O)[C@H]5[C@H]4C)sc3c2SC)CN1 | 0.013 µg/mL (≈ 0.0257 µM) | 1.56 µg/mL (≈ 3.08 µM) | 6.25 µg/mL (≈ 12.3 µM) | – | – | – | – | – | – | – |
